Measured values published in publication PMC11489226 (Archives of Toxicology, 2024).
Several values for one entry are separate records, joined by “and”; a condition that tells them apart may be missing. Equal values may be shown once.

Target: T1, CYP2A6 (Homo sapiens, UniProt P11509)
T1 sequence (P11509 1-494): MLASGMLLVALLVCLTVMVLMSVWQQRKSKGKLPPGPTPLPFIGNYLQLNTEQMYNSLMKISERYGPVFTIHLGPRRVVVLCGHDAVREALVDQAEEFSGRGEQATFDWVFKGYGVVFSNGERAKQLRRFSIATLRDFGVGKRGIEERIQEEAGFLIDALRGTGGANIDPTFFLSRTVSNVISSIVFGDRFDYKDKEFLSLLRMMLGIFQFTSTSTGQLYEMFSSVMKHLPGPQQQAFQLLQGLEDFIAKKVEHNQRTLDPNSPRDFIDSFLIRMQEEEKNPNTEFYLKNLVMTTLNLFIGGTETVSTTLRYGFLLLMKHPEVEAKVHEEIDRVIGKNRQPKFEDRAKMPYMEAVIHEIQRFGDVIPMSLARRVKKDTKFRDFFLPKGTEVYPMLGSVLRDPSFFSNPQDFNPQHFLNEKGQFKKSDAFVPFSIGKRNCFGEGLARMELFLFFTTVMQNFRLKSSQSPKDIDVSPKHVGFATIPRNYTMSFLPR
Test: Metabolism in transgenic HEK293 cells expressing CYP2A6
Assay type: in vitro ADME
Design: V5-His (vector-encoded) (C); expressed in transfected cells
Conditions: 20 µM parent PCB, 24 h; for Quantification of metabolites generated from PCB28, 52, and 101: supernatant
Procedure: For the generation of transgenic cell lines, we used semi-adherent HEK293 cells (DSMZ, ACC305, human embryonic kidney cells) which were cultured on a daily basis in DMEM medium supplemented with 10% (FCS) and 1% penicillin/streptomycin. In a first step CYP1A2, CYP2C8, CYP2C9, CYP3A4, CYP2A6, and CYP2E1 cDNA were cloned into the plasmid pcDNATM3.1/V5-His TOPO® using human liver RNA as a template and using the following primers: CYP1A2 for5′-[…]-3′, CYP1A2 rev 5′-[…]-3′; CYP2C8 for 5′-[…]-3′, CYP2C8 rev 5′-[…]-3′; CYP2C9 for 5′-[…]-3′, CYP2C9 rev 5′-[…]-3′; CYP3A4 for 5′-[…]-3′, CYP3A4 rev 5′-[…]-3′, CYP2A6 for 5′-[…]-3′, CYP2A6 rev 5′-[…]-3′; CYP2E1 for 5′-[…]-3′, CYP2E1 rev 5′-[…]-3′. Final constructs were verified with Sanger DNA sequencing and restriction digestion. For transfection, 3 × 10^6 HEK293 cells were pre-incubated in a 10 cm dish in DMEM medium with 10% FCS, but without antibiotics, for 18 to 24 h. When the cells reached approximately 70% confluency, they were transfected using TransIT-LT1 transfection reagent (Biozol, Eiching, Germany). The TransIT-LT1 reagent was warmed to room temperature and vortexed. 1.63 mL Opti-MEM, 16.25 µL plasmid DNA (1 µg/µL), and 48.75 µL TransIT-LT1 reagent were mixed and incubated for 15 to 30 min. The mixture was then added dropwise to the medium of the cells, and the cells were incubated again at 37 °C and 5% CO2. After 24 h, the medium was replaced with standard medium and geneticin was added for selection (1 mg/mL). Cells were selected for 6–8 weeks in bulk culture, and single cell clones were obtained subsequently by limiting dilution. Each clone was checked for insertion by PCR using genomic DNA as a template.
Parallel samples were run without the addition of PCBs. At a confluence of 80%, PCBs (20 μM each, dissolved in ethanol) were added and cells were incubated for 24 h before harvest of supernatants. Supernatants were diluted 1:2 with 80 μL acetate buffer 0.1 M (pH = 5.3). 100 μL of this dilution were further incubated with 100 μL of ammonium acetate buffer 0.1 M (pH = 5.3) and 5 μL of β-Glucuronidase/Arylsulfatase enzyme overnight in a drying oven at 37 °C for enzymatic hydrolysis to release conjugated compounds. 50 μL of a mix of internal standards (10 ng/mL) and 600 μL of methanol were added to the samples, then mixed by vortexing for 1 min and centrifuged for 10 min at 3400g. The individual supernatants were transferred to glass LC vials and evaporated to approximately 50 μL at 45 °C under a gentle stream of nitrogen. Finally, 0.1 mol/ L ammonium acetate buffer was added to a final volume of 100 μL and then transferred to an insert for analysis.
HEK293 cells overexpressing the respective CYP enzymes were seeded onto 6-well plates and were treated with or without 10 µM of the respective probe drug in DMEM medium for 24 hours at 37 °C and 5 % CO2. After incubation 200 µL DMEM were collected, cells were washed with PBS and adherent cells were lysed in 500 µL methanol for 20 minutes. Analytes were measured by LC-MS/MS either in methanol cell lysates or in DMEM supernatant.
50 µL of DMEM samples were protein precipitated by adding 200 µL of methanol and were centrifuged for 20 min, 17,000 g and 4°C. Supernatants were diluted in water or 40 % methanol according to dilution factor. Methanol cell lysates were diluted ½ with water and centrifuged for 20 min, 17,000 g and 4°C. 5 µL of the processed samples were injected for LC-MS analysis.

Row | SMILES | Quantification of metabolites generated from PCB28, 52, and 101 (CYP2A6 Clone B7) | Quantification of metabolites generated from PCB28, 52, and 101 (CYP2A6 Clone C4) | Quantification of metabolites generated from PCB28, 52, and 101 (CYP2A6 Clone C5) | Metabolite concentration formed, range across cell clones (HEK293CYP2A6 cell lines)
1 | Oc1cc(-c2ccc(Cl)cc2)c(Cl)cc1Cl [5-OHCB28, 2,4,4′-trichloro-5-biphenylol] | 1,84 nM | 1,33 nM | 0,22 nM | 
2 | Oc1cc(Cl)c(-c2ccc(Cl)cc2)cc1Cl [4-OHCB31, 2,4′,5-trichloro-4-biphenylol] |  | 0,63 nM | 0,11 nM | 0.18–1.31 µg/L and 0.66–4.8 nM
